Experimental data from patent US11001850B2, “Constructs and methods for biosynthesis of cyclopamine” (priority 2014, dated 2021).

Tests used:
Type in all cases: biochemical, Veratrum californicum
[1] = tested on: CYP90B27 (cholesterol 22-hydroxylase); assay: Substrate testing of CYP90B27 (cholesterol 22-hydroxylase) co-expressed with CPR in Sf9 cells; design: key to Production of a detectable product (substrate testing), CYP90B27: Production of a detectable product is indicated by a (+); conditions: for Production of a detectable product (substrate testing), CYP90B27: 7.5 μM substrate, crude Sf9 cell suspension with CPR, 1.25 mM NADPH, 30° C. for 2 hours, GC-MS or LC-MS/MS; for Hydroxylation of substrate by cholesterol 22-hydroxylase (VC2646), in words: Sf9 cells with CPR, GC-MS
Procedure: Compounds were prepared to 1 mM stock solutions of 100% DMSO and diluted with H2O.
(§1) Standards were obtained from Sigma Aldrich, Research Plus, and Avanti. For GC-MS analysis, 5 individual assays per substrate were pooled after incubation at 30° C. for 2 hours; one assay produced sufficient product for analysis by LC-MS/MS. Assay conditions were as follows: 80 μl S. frugiperda Sf9 cell suspension (obtained by re-suspension of 50 ml viral infected culture pellet in 3.5 ml of 100 mM tricine pH 7.4/5 mM thioglycolic acid), 60 mM potassium phosphate buffer pH 8, 1.25 mM NADPH, 7.5 μM substrate, and H2O in a total volume of 200 μl. Controls were performed with no enzyme and S. frugiperda Sf9 cells expressing an unrelated cytochrome P450, or CPR-only, for each assay.

[2] = tested on: CYP90G1 (22-hydroxy-26-aminocholesterol 22-oxidase); assay: Substrate testing of CYP90G1 (22-hydroxy-26-aminocholesterol 22-oxidase) co-expressed with CPR in Sf9 cells; design: key to Production of a detectable product (substrate testing), CYP90G1: Production of a detectable product is indicated by a (+); conditions: for Production of a detectable product (substrate testing), CYP90G1: 7.5 μM substrate, crude Sf9 cell suspension with CPR, 1.25 mM NADPH, 30° C. for 2 hours, GC-MS or LC-MS/MS; for Oxidation of the 22-hydroxy position of substrate by VC13284 (22-hydroxy-26-aminocholesterol 22-oxidase), in words: Sf9 cells with CPR, GC-MS / LC-MS/MS
Procedure: (§2) Each cytochrome P450 co-expressed with CPR in S. frugiperda Sf9 cells was subjected to individual enzyme assays with the compounds found in Table 6 to determine functionality. Compounds were prepared to 1 mM stock solutions of 100% DMSO and diluted with H2O.
as §1

[3] = tested on: CYP94N1 (22-hydroxycholesterol 26-hydroxylase/oxidase); assay: Substrate testing of CYP94N1 (22-hydroxycholesterol 26-hydroxylase/oxidase) co-expressed with CPR in Sf9 cells; design: key to Production of a detectable product (substrate testing), CYP94N1: Production of a detectable product is indicated by a (+); conditions: for Hydroxylation of substrate by VC12709 (22-hydroxycholesterol 26-hydroxylase/oxidase), in words: Sf9 cells with CPR, GC-MS
Procedure: as §2, §1
Assay for GC-MS: Cytochrome P450 enzyme assay conditions were identical to those stated above using S. frugiperda Sf9 cell suspensions with the following modifications. First, 12 assays each containing 22-hydroxy-26-aminocholesterol 22-oxidase+CPR, 22-hydroxycholesterol 26-hydroxylase/oxidase+CPR, or control cytochrome P450+CPR and each with pure 22(R)-hydroxycholesterol were allowed to incubate overnight at 30° C. Like assays were pooled, extracted 3 times with 2 volumes ethyl acetate, dried under N2, and re-suspended in 180 μl of 25% DMSO. Extracts containing the enzymatic product of the 22-hydroxycholesterol 26-hydroxylase/oxidase+CPR and 22(R)-hydroxycholesterol were divided equally and used as substrate for 22-hydroxy-26-aminocholesterol 22-oxidase+CPR and control cytochrome P450+CPR. Extracts containing the enzymatic product of 22-hydroxy-26-aminocholesterol 22-oxidase+CPR and 22(R)-hydroxycholesterol were divided and used as substrate in 6 assays containing 22-hydroxycholesterol 26-hydroxylase/oxidase+CPR and 6 assays containing control cytochrome P450+CPR. Control P450+CPR assay was run in parallel, treated identically and added to another control P450 assay. Refer to FIG. 1A for an overview of the experiment. Assays were allowed to incubate for 20 min at 30° C. then stopped by addition of 20 μl of 20% TCA with vortexing. Like assays were pooled, extracted, derivatized, and analyzed by GC-MS using the method stated above.

## CC(C)CC[C@@H](O)[C@@H](C)[C@H]1CC[C@H]2[C@@H]3CC=C4C[C@@H](O)CC[C@]4(C)[C@H]3CC[C@]12C [22(R)-hydroxycholesterol]
[1]
  Production of a detectable product (substrate testing), CYP90B27: +
[2]
  Production of a detectable product (substrate testing), CYP90G1: +
  Oxidation of the 22-hydroxy position of substrate by VC13284 (22-hydroxy-26-aminocholesterol 22-oxidase), in words: oxidizes the 22-hydroxy position
[3]; 7.5 μM substrate, crude Sf9 cell suspension with CPR, 1.25 mM NADPH, 30° C. for 2 hours, GC-MS or LC-MS/MS
  Production of a detectable product (substrate testing), CYP94N1: +
[3]
  Hydroxylation of substrate by VC12709 (22-hydroxycholesterol 26-hydroxylase/oxidase), in words: found to hydroxylate

## CC(CN)CCC(O)[C@@H](C)[C@H]1CC[C@H]2[C@@H]3CC=C4C[C@@H](O)CC[C@]4(C)[C@H]3CC[C@]12C (stereo partly shown) [22-hydroxy-26-aminocholesterol]
[2]
  Oxidation of the 22-hydroxy position of substrate by VC13284 (22-hydroxy-26-aminocholesterol 22-oxidase), in words: oxidizes the 22-hydroxy position

## CC(C)CCC(=O)[C@@H](C)[C@H]1CC[C@H]2[C@@H]3CC=C4C[C@@H](O)CC[C@]4(C)[C@H]3CC[C@]12C [22-keto-cholesterol]
[3]
  Hydroxylation of substrate by VC12709 (22-hydroxycholesterol 26-hydroxylase/oxidase), in words: unable to hydroxylate

## CC(C)CCC[C@@H](C)[C@H]1CC[C@H]2[C@@H]3CC=C4C[C@@H](O)CC[C@]4(C)[C@H]3CC[C@]12C [cholesterol]
[1]
  Production of a detectable product (substrate testing), CYP90B27: +
  Hydroxylation of substrate by cholesterol 22-hydroxylase (VC2646), in words: added a hydroxyl group to the 22-position
[3]
  Hydroxylation of substrate by VC12709 (22-hydroxycholesterol 26-hydroxylase/oxidase), in words: not detected

## CC(C)CCC[C@@H](C)[C@H]1CC[C@H]2[C@@H]3[C@@H](O)C=C4C[C@@H](O)CC[C@]4(C)[C@H]3CC[C@]12C [7β-hydroxycholesterol]
[1]
  Production of a detectable product (substrate testing), CYP90B27: +
  Hydroxylation of substrate by cholesterol 22-hydroxylase (VC2646), in words: hydroxylated

## C[C@@H](CO)CCC[C@@H](C)[C@H]1CC[C@H]2[C@@H]3CC=C4C[C@@H](O)CC[C@]4(C)[C@H]3CC[C@]12C [26-hydroxycholesterol]
[1]
  Production of a detectable product (substrate testing), CYP90B27: +
  Hydroxylation of substrate by cholesterol 22-hydroxylase (VC2646), in words: hydroxylated

## CC(CO)CCC(O)[C@@H](C)[C@H]1CC[C@H]2[C@@H]3CC=C4C[C@@H](O)CC[C@]4(C)[C@H]3CC[C@]12C (stereo partly shown) [22,26-dihydroxycholesterol]
[2]
  Production of a detectable product (substrate testing), CYP90G1: +
  Oxidation of the 22-hydroxy position of substrate by VC13284 (22-hydroxy-26-aminocholesterol 22-oxidase), in words: oxidizes the 22-hydroxy position
